Results published in US5470877A, “Uses of perillic acid methyl ester” (Wisconsin Alumni Research Foundation, priority 1994, dated 1995).

Key:
[1] = Acute oral toxicity in rats; type: in vivo, Wistar-Furth rat; details: 1:1 sesame oil
Description: When POH was given in an acute manner (a single oral dose, 1:1 mix with sesame oil, for 5 days), the following was observed: After 300 mg total POH dose, 2 out of 5 rats died within 24 hours. After a 200 mg total POH dose, 2 out of 5 rats died within 24 hours. After a 100 mg total POH dose, 5 out of 5 rats tolerated 5 days with weight loss.

[2] = test system: rat mammary carcinoma; assay: Comparison of dietary perillyl alcohol and perillic acid methyl ester as inducers of rat mammary carcinoma regression; type: in vivo, Wistar-Furth rat; details: for no regression (tumors) / no response / partial regression >1/2 original diameter (%) / partial regression >1/2 original diameter (tumors) / small regression response / some growth of tumor: 6 weeks
Description: Inbred female Wistar-Furth rats were given 50 mg/kg DMBA at 50-55 days of age. Upon development of a mammary tumor with the largest diameter≥10 mm, the rat was assigned to 0.5% perillic acid methyl ester diet and fed ad libitum. The 0.5% perillic acid methyl ester diet (weight compound/weight ground Teklad rat/mouse 4% meal/chow) was prepared fresh every 7-10 days. Fresh diet was given to rats daily. All rats were weighed and palpated weekly. The study was terminated at 6 weeks after initial diet administration. The following tumor regression data was acquired:
We compared the effects of PAME and POH in terms of their ability to regress rat mammary carcinomas. Table 8 records our comparison. In summary, a 0.5% PAME diet was effective, while a 0.5% POH diet was only 10% effective. Diets of 2% POH were roughly 64-70% effective. While 2% POH is tolerated by a mammal, on a practical level PAME is preferred because a lower dose is sufficient.

[3] = test system: human cancer cell lines; assay: Growth of human cancer cell lines (NCI Developmental Therapeutics Program, FIG. 5); type: cell-based; details: various concentrations
Description: Various concentrations of perillyl alcohol caused the regression of a number of human cancer cell lines. FIG. 5 is a set of diagrams showing the effects of perillyl alcohol on different cancer cell lines. These experiments were conducted by the National Cancer Institute Developmental Therapeutics Program.

[4] = Effect of dietary perillyl alcohol on serum cholesterol and lipids in rats; type: in vivo, Wistar-Furth rat
From the text: Twenty-one female, six-weeks-old, Wistar-Furth rats were divided into three different diet groups of seven rats each. One group was fed a control diet, one group was fed a 1% perillyl alcohol diet, and one group was fed a 2% perillyl alcohol diet. Rats from each diet group were matched into pair feeding groups.
Rats in the control group were pair fed against rats in the 2% POH diet group. Rats in the 1% POH diet group were allowed to eat as much as they wanted. After one month, rats in the 1% POH diet group were also pair fed against rats in 2% POH group. After two months of feeding, rats in all groups were allowed to eat as much as they wanted. The rats were allowed to eat as much as they wanted because the diurnal rhythm of HMGCoA reductase activity might be related to food intake.
The rats' body weights were measured twice a week. Perillyl alcohol diets were made once a week and replaced daily.
[…] About 1 ml blood was taken from each rat each time and collected in heparin (SIGMA) coated tube. For CoQ analysis, 0.5 ml blood was added to the CoQ6 standard. For cholesterol analysis the blood were spun down at 3,000 rpm for 10 minutes and the plasma were taken. By three months, all rats were killed.
Total cholesterol, HDL cholesterol and triglyceride levels in the rats' plasma were measured using diagnostic kits from SIGMA according to manufacturer's instructions. LDL cholesterol levels were calculated by Friedewald's equation. […]

[5] = 0.5% POH diet, first comparison
[6] = 1.0% POH diet, first comparison
[7] = 1.5% POH diet, first comparison
[8] = 2.0% POH diet, first comparison
[9] = 2.0% POH diet, second comparison

In the case of `C=C(C)[C@@H]1CC=C(CO)CC1` [perillyl alcohol], the “rats that tolerated 5 days with weight loss” value ([1]; 100 mg total POH dose) is reported as 5 out of 5, the “rats died within 24 hours” value ([1]; 200 mg total POH dose) is reported as 2 out of 5 and the “rats died within 24 hours” value ([1]; 300 mg total POH dose) is reported as 2 out of 5. For the same compound, the “no regression (tumors)” value [2, 5] was 18/20, the no response [2, 5] was 1/20 and the “partial regression >1/2 original diameter (%)” value [2, 5] was 10%. The “partial regression >1/2 original diameter (tumors)” value [2, 5] was 2/20, the small regression response [2, 5] was 2/20 and the “some growth of tumor” value [2, 5] was 15/20. The “no regression (tumors)” value [2, 6] was 15/20, the no response [2, 6] was 2/20 and the “partial regression >1/2 original diameter (%)” value [2, 6] was 25%. For the same compound, the “partial regression >1/2 original diameter (tumors)” value [2, 6] was 5/20, the small regression response [2, 6] was 2/20 and the “some growth of tumor” value [2, 6] was 11/20. For the same compound, the “no regression (tumors)” value [2, 7] was 15/21, the no response [2, 7] was 7/21 and the “partial regression >1/2 original diameter (%)” value [2, 7] was 29%. For the same compound, the “partial regression >1/2 original diameter (tumors)” value [2, 7] was 6/21, the small regression response [2, 7] was 7/21 and the “some growth of tumor” value [2, 7] was 4/21. For the same compound, the “no regression (tumors)” value [2, 8] was 6/20, the no response [2, 8] was 1/20 and the “partial regression >1/2 original diameter (%)” value [2, 8] was 70%. The “partial regression >1/2 original diameter (tumors)” value [2, 8] was 14/20, the small regression response [2, 8] was 2/20 and the “some growth of tumor” value [2, 8] was 3/20. The “no regression (tumors)” value [2, 9] was 4/11, the no response [2, 9] was 2/11 and the “partial regression >1/2 original diameter (%)” value [2, 9] was 64%. For the same compound, the “partial regression >1/2 original diameter (tumors)” value [2, 9] was 7/11, the small regression response [2, 9] was 1/11 and the “some growth of tumor” value [2, 9] was 1/11. The “effectiveness of diet (%)” value ([2]; 2% POH diets) was 64-70%, the weight loss ([2]; rats fed PAME or POH diet) was “did experience weight loss” and the regression rate ([2]; rats fed a 1% diet) was 55%. The “effect on human cancer cell growth” value [3] was “inhibited cancer cell growth”, the “Body Weight” value ([4]; 1% POH diet) was 207 ± 3 g and the “Heart Weight” value ([4]; 1% POH diet) was 0.57 ± 0.05 g. The “Liver Weight” value ([4]; 1% POH diet) was 6.1 ± 0.3 g, the “HDL Cholesterol” value ([4]; 1% POH diet, Kill) was 37.6 ± 3.8 mg/dL and the “Total Cholesterol” value ([4]; 1% POH diet, Kill) was 47.7 ± 4.3 mg/dL. The “Triglyceride” value ([4]; 1% POH diet, Kill) was 29.8 ± 8.9 mg/dL, the “LDL Cholesterol” value ([4]; 1% POH diet, Kill, Friedewald's equation) was 4.1 ± 2.4 mg/dL and the “HDL Cholesterol” value ([4]; 1% POH diet, WK3) was 31.7 ± 2.3 mg/dL. The “Total Cholesterol” value ([4]; 1% POH diet, WK3) was 45.9 ± 4.2 mg/dL, the “Triglyceride” value ([4]; 1% POH diet, WK3) was 20.8 ± 5.2 mg/dL and the “LDL Cholesterol” value ([4]; 1% POH diet, WK3, Friedewald's equation) was 10.1 ± 3.1 mg/dL. For the same compound, the “HDL Cholesterol” value ([4]; 1% POH diet, WK6) was 33.1 ± 2.2 mg/dL, the “Total Cholesterol” value ([4]; 1% POH diet, WK6) was 41.0 ± 3.0 mg/dL and the “Triglyceride” value ([4]; 1% POH diet, WK6) was 29.5 ± 5.7 mg/dL. For the same compound, the “LDL Cholesterol” value ([4]; 1% POH diet, WK6, Friedewald's equation) was 2.0 ± 1.4 mg/dL, the “HDL Cholesterol” value ([4]; 1% POH diet, WK9) was 31.5 ± 2.6 mg/dL and the “Total Cholesterol” value ([4]; 1% POH diet, WK9) was 43.2 ± 4.9 mg/dL. The “Triglyceride” value ([4]; 1% POH diet, WK9) was 28.7 ± 5.7 mg/dL, the “LDL Cholesterol” value ([4]; 1% POH diet, WK9, Friedewald's equation) was 6.0 ± 4.0 mg/dL and the “Body Weight” value ([4]; 2% POH diet) was 198 ± 6 g. For the same compound, the “Heart Weight” value ([4]; 2% POH diet) was 0.57 ± 0.05 g, the “Liver Weight” value ([4]; 2% POH diet) was 6.2 ± 0.5 g and the “HDL Cholesterol” value ([4]; 2% POH diet, Kill) was 39.8 ± 4.0 mg/dL. The “Total Cholesterol” value ([4]; 2% POH diet, Kill) was 52.8 ± 6.8 mg/dL, the “Triglyceride” value ([4]; 2% POH diet, Kill) was 33.8 ± 14.9 mg/dL and the “LDL Cholesterol” value ([4]; 2% POH diet, Kill, Friedewald's equation) was 6.2 ± 1.8 mg/dL. The “HDL Cholesterol” value ([4]; 2% POH diet, WK3) was 31.4 ± 1.6 mg/dL, the “Total Cholesterol” value ([4]; 2% POH diet, WK3) was 44.2 ± 3.7 mg/dL and the “Triglyceride” value ([4]; 2% POH diet, WK3) was 17.2 ± 5.3 mg/dL. For the same compound, the “LDL Cholesterol” value ([4]; 2% POH diet, WK3, Friedewald's equation) was 9.4 ± 3.0 mg/dL, the “HDL Cholesterol” value ([4]; 2% POH diet, WK6) was 33.5 ± 3.6 mg/dL and the “Total Cholesterol” value ([4]; 2% POH diet, WK6) was 41.2 ± 5.0 mg/dL. The “Triglyceride” value ([4]; 2% POH diet, WK6) was 21.1 ± 5.7 mg/dL, the “LDL Cholesterol” value ([4]; 2% POH diet, WK6, Friedewald's equation) was 3.4 ± 2.2 mg/dL and the “HDL Cholesterol” value ([4]; 2% POH diet, WK9) was 30.7 ± 2.9 mg/dL. The “Total Cholesterol” value ([4]; 2% POH diet, WK9) was 40.7 ± 3.3 mg/dL, the “Triglyceride” value ([4]; 2% POH diet, WK9) was 18.4 ± 2.9 mg/dL and the “LDL Cholesterol” value ([4]; 2% POH diet, WK9, Friedewald's equation) was 6.4 ± 1.2 mg/dL. For the same compound, the “LDL level versus HDL level” value ([4]; after 6 weeks of treatment) was “LDL level is reduced much more than the HDL level”, the Triglyceride levels ([4]; after 6 weeks of treatment) was “dramatically reduced” and the total cholesterol level ([4]; after 6 weeks of treatment) was “reduced”.
